Data reported in patent publication US7595401B2, “Therapeutic compounds and their use in cancer” (Myriad Pharmaceuticals, Inc., priority 2006, dated 2009).

Test system: purified human Hsp90
Assay: Binding Assay: fluorescence polarization with BODIPY-labeled geldanamycin
Details: 5 μM compound, BODIPY-GM 10 nM, Hsp90 30 nM
Description: Compound binding to purified Hsp90 was monitored using BODIPY-labeled geldanamycin (BODIPY-GM) in a fluorescence polarization assay adapted from Kim et al. (Journal of Biomolecular Screening 2004, 9(5):375-381). Compound dilutions (in 100% DMSO) were added to black-bottom 96-well plates (Greiner; 2% DMSO final), and equal volumes of BODIPY-GM (10 nM final) and purified human Hsp90 (Stressgen, SPP-770; 30 nM final) in assay buffer (20 mM HEPES-KOH pH 7.3, 50 mM KCl, 5 mM MgCl2, 20 mM Na2MoO4, 0.01% NP-40, 0.1 mg/mL bovine gamma globulin [Invitrogen, P2045], 2 mM DTT) were added sequentially to yield a final volume of 50 microliters. Plates were incubated overnight at room temperature. Parallel and perpendicular fluorescence measurements were read (LJL BioSystems Analyst AD plate reader) with excitation/emission wavelengths of 485/530 nm. Background fluorescence (buffer only) was subtracted, and fluorescence polarization (FP) values, expressed in mP units, were calculated from parallel and perpendicular fluorescence readings as follows: FP=(parallel−perpendicular)/(parallel+perpendicular)*1000
Percent inhibition was calculated by normalizing the FP values to those obtained in parallel reactions containing DMSO and subtracting these normalized values from 100%. Intrinsic compound fluorescence was independently monitored, and FP data points confounded by compound fluorescence were excluded from the analysis.

SMILES | % Inhibition at 5 μM Compound Concentration [%]
N#CC1CCN(CCn2c(Sc3cc4c(cc3Br)OCO4)nc3ncnc(N)c32)CC1 [Example 576, 1-(2-{6-Amino-8-[(6-bromo-1,3-benzodioxol-5-yl)thio]-7 H-purin-7-yl}ethyl)piperidine-4 - carbonitrile] | 31
CC(C)(C)NS(=O)(=O)c1ccc(CCn2cnc(N)c3nc(Sc4cc5c(cc4Br)OCO5)nc2-3)cc1 [Example 274, 4-(2-{6-Amino-8-[(6-bromo-1,3-benzodioxol-5-yl)thio]-3H-purin-3-yl}ethyl) N-(tert-butyl)benzenesulfonamide] | 0.0
Cc1ccc(C)c(CCn2cnc(N)c3nc(Sc4cc5c(cc4Br)OCO5)nc2-3)c1 [Example 125, 8-(6-bromo-benzo[1,3]dioxol-5-ylsulfanyl)-3-[2-(2,5-dimethyl-phenyl)-ethyl]-3H-purin-6-ylamine] | 12
COc1cc(Sc2nc3c(N)nc[n+](CCC4CCN(C=O)CC4)c3[nH]2)cc(OC)c1OC [Example 541, 4-(2-{6-Amino-8-[(3,4,5-trimethoxyphenyl)thio]-3 H-purin-3-yl}ethyl)piperidine-1-carbaldehyde] | 4.00
Nc1ncn(CCc2cccc(F)c2)c2nc(Sc3cc4c(cc3Br)OCO4)nc1-2 [Example 110, 8-(6-bromo-benzo[1,3]dioxol-5-ylsulfanyl)-3-[2-(3-fluoro-phenyl)-ethyl]-3H-purin-6-ylamine] | 16
COc1cc(Sc2nc3c(N)ncn(CCC4CCN(C=O)CC4)c-3n2)c2ocnc2c1 [Example 535, 4-(2-{6-Amino-8-[(5-methoxy-1,3-benzoxazol-7-yl)thio]-3 H-purin-3-yl}ethyl)piperidine-1-carbaldehyde] | 1.00
Nc1ncn(CCc2c(Cl)cccc2Cl)c2nc(Sc3cc4c(cc3Br)OCO4)nc1-2 [Example 129, 8-(6-bromo-benzo[1,3]dioxol-5-ylsulfanyl)-3-[2-(2,6-dichloro-phenyl)-ethyl]-3H-purin-6-ylamine] | 54
Nc1ncn(CCc2ccccc2)c2nc(Sc3ccc4ncoc4c3)nc1-2 [Example 284, 8-(1,3-Benzoxazol-6-ylthio)-3-(2-phenylethyl)-3H-purin-6-amine] | 3.0
Nc1ncn(CCCn2cccc2)c2nc(Sc3ccc4c(c3)OCO4)nc1-2 [Example 52, 8-(benzo[1,3]dioxol-5-ylsulfanyl)-3-(3-pyrrol-1-yl-propyl)-3H-purin-6-ylamine] | 0

Continued, values first:

% Inhibition at 5 μM Compound Concentration [%] | SMILES
0 | COc1ccc(OC)c(Sc2nc3c(N)ncn(CC(c4ccc(Cl)cc4)C(C)C)c-3n2)c1 (stereo not shown) [Example 120, 3-[2-(4-chloro-phenyl)-3-methyl-butyl]-8-(2,5-dimethoxy-phenylsulfanyl)-3H-purine-6-ylamine]
0 | CCOc1cc(CCn2cnc(N)c3nc(Sc4cc(OC)ccc4OC)nc2-3)ccc1OC [Example 112, 8-(2,5-dimethoxy-phenylsulfanyl)-3-[2-(3-ethoxy-4-methoxy-phenyl)-ethyl]-3H-purin-6-ylamine]
29.0 | COc1ccc(C#N)cc1Sc1nc2c(N)ncn(CCc3ccccc3)c-2n1 [Example 305, 3-{[6-Amino-3-(2-phenylethyl)-3H-purin-8-yl]thio}-4-methoxybenzonitrile]
>10 | COc1ccc(OC)c(Sc2nc3c(N)ncn(CCc4ccc(-c5ccccc5)cc4)c-3n2)c1 [Example 182, 3-(2-biphenyl-4-yl-ethyl)-8-(2,5-dimethoxy-phenylsulfanyl)-3H-purin-6-ylamine]
0.0 | COc1ccc(OC)c(Sc2nc3c(N)ncn(CC4(c5ccc(Cl)cc5)CC4)c-3n2)c1 [Example 280, 3-{[1-(4-Chlorophenyl)cyclopropyl]methyl}-8-[(2,5-dimethoxyphenyl)thio]-3H-purin-6-amine]
0 | COc1ccc(OC)c(Sc2nc3c(N)ncn(CCc4ccc(Cl)cc4Cl)c-3n2)c1 [Example 28, 3-[2-(2,4-dichloro-phenyl)-ethyl]-8-(2,5-dimethoxy-phenyl-sulfanyl)-3H-purin-6-ylamine]
0 | COc1ccc(OC)c(Sc2nc3c(N)ncn(CCc4ccc(Br)cc4)c-3n2)c1 [Example 72, 3-[2-(4-bromo-phenyl)-ethyl]-8-(2,5-dimethoxy-phenylsulfanyl)-3H-purin-6-ylamine]
44 | COc1ccc(OC)c(Sc2nc3c(N)ncnc3n2CCc2ccc3c(c2)OCO3)c1 [Example 167, 9-(2-Benzo[1,3]dioxol-5-yl-ethyl)-8-(2,5-dimethoxy-phenylsulfanyl)-9H-purin-6-ylamine]
30 | COc1ccc(OC)c(Sc2nc3c(N)ncn(CC(O)c4ccc(Cl)cc4Cl)c-3n2)c1 (stereo not shown) [Example 108, 2-[6-amino-8-(2,5-dimethoxy-phenylsulfanyl)-purin-3-yl]-1-(2,4-dichloro-phenyl)ethanol]
0 | Nc1ncn(CCc2ccccc2)c2nc(Sc3ccc(Cl)cc3)nc1-2 [Example 18, 8-(4-chloro-phenylsulfanyl)-3-phenethyl-3H-purin-6-ylamine]
2 | Nc1ncn(CC2(c3ccc(Cl)cc3)CCC2)c2nc(Sc3cc4c(cc3Br)OCO4)nc1-2 [Example 96, 8-(6-bromo-benzo[1,3]dioxol-5-ylsulfanyl)-3-[1-(4-chloro-phenyl)-cyclobutylmethyl]-3H-purin-6-ylamine]
0 | COc1ccc(OC)c(Sc2nc3c(N)ncn(CCc4ccccc4Br)c-3n2)c1 [Example 142, 3-[2-(2-bromo-phenyl)-ethyl]-8-(2,5-dimethoxy-phenylsulfanyl)-3H-purin-6-ylamine]

Same assay, conditions: BODIPY-GM 10 nM, Hsp90 30 nM

SMILES | IC50 [nM]
CC(=O)N1CCC(CCn2c(Sc3ccc4c(c3)OCO4)nc3c(N)ncnc32)CC1 [Example 561, 9-[2-(1-Acetylpiperidin-4-yl)ethyl]-8-(1,3-benzodioxol-5-ylthio)-9 H-purin-6-amine] | > 5000
COc1ccc(OC)c(Sc2nc3c(N)ncnc3n2CCc2c(C)cc(C)cc2C)c1 [Example 55, 8-(2,5-Dimethoxy-phenylsulfanyl)-9-[2-(2,4,6-trimethyl-phenyl)-ethyl]-9H-purin-6-ylamine] | 1700
C[C@@H](N)C(=O)N1CCC[C@@H](CCn2c(Sc3cc4c(cc3Br)OCO4)nc3c(N)ncnc32)C1 [Example 755, 9-(2-{(3S)-1-[(2R)-2-Aminopropanoyl]piperidin-3-yl}ethyl)-8-[(6-bromo-1,3-benzodioxol-5-yl)thio]-9H-purin-6-amine] | 140
CC(C)(C)OC(=O)N1CCC(Cn2c(Sc3cc4c(cc3Br)OCO4)nc3c(N)ncnc32)CC1 [Example 639, tert-Butyl 4-({6-amino-8-[(6-bromo-1,3-benzodioxol-5-yl)thio]-9 H-purin-9-yl}methyl)piperidine-1-carboxylate] | 900
CS(=O)(=O)N1CCCC(CCn2cnc(N)c3nc(Sc4cc5c(cc4Br)OCO5)nc2-3)C1 (stereo not shown) [Example 370, 8-[(6-Bromo-1,3-benzodioxol-5-yl)thio]-3-{2-[1-(methylsulfonyl)piperidin-3-yl]ethyl}-3H-purin-6-amine] | 600
C[C@H](N)C(=O)N1CCC(CCn2c(Sc3nc4cccc(Cl)c4s3)nc3c(N)ncnc32)CC1 [Example 774, 9-(2-{1-[(2S)-2-Aminopropanoyl]piperidin-4-yl}ethyl)-8-[(7-chloro-1,3-benzothiazol-2-yl)thio]-9H-purin-6-amine] | 200
COCc1cc2c(cc1Sc1nc3c(N)ncnc3n1CCC1CCN(C=O)CC1)OCO2 [Example 624, 4-[2-(6-Amino-8-{[6-(methoxymethyl)-1,3-benzodioxol-5-yl]thio}-9 H-purin-9-yl)ethyl]piperidine-1-carbaldehyde] | 580
CC1(C(=O)N2CCC(CCn3c(Sc4cc5c(cc4Br)OCO5)nc4c(N)ncnc43)CC2)CC1 [Example 516, 8-[(6-Bromo-1,3-benzodioxol-5-yl)thio]-9-(2-{1-[(1-methylcyclopropyl)carbonyl]piperidin-4-yl}ethyl)-9 H-purin-6-amine] | 600
CC(C)(N)C(=O)N1CCC(CCn2c(Sc3cc4c(cc3Br)OCO4)nc3c(N)ncnc32)CC1 [Example 750, 9-{2-[1-(2-Amino-2-methylpropanoyl)piperidin-4-yl]ethyl}-8-[(6-bromo-1,3-benzodioxol-5-yl)thio]-9H-purin-6-amine] | 180

Now from value to compound:

IC50 [nM] | SMILES
> 9000 | Nc1ncnc2c1nc(Sc1cc3c(cc1Br)OCO3)n2CC1(c2ccc(Cl)cc2)CC1 [Example 221, 8-(6-Bromo-benzo[1,3]dioxol-5-ylsulfanyl)-9-[1-(4-chloro-phenyl)-cyclopropylmethyl]-9H-purin-6-ylamine]
> 5000 | COc1ccc(OC)c(Sc2nc3c(N)ncn(CCc4ccc(C(C)=O)cc4)c-3n2)c1 [Example 64, 1-(4-{2-[6-amino-8-(2,5-dimethoxy-phenylsulfanyl)-purin-3-yl]-ethyl}-phenyl)-ethanone]
110 | COc1ccc(OC)c(Sc2nc3c(N)ncnc3n2CCc2cccs2)c1 [Example 199]
> 25000 | COc1ccc(OC)c(Sc2nc3c(N)ncnc3n2CCc2ccc3c(c2)OCO3)c1 [Example 167, 9-(2-Benzo[1,3]dioxol-5-yl-ethyl)-8-(2,5-dimethoxy-phenylsulfanyl)-9H-purin-6-ylamine]
